One experiment has as its target T1, Acetylcholinesterase (Rattus norvegicus, UniProt P37136).
T1 sequence (P37136 whole entry): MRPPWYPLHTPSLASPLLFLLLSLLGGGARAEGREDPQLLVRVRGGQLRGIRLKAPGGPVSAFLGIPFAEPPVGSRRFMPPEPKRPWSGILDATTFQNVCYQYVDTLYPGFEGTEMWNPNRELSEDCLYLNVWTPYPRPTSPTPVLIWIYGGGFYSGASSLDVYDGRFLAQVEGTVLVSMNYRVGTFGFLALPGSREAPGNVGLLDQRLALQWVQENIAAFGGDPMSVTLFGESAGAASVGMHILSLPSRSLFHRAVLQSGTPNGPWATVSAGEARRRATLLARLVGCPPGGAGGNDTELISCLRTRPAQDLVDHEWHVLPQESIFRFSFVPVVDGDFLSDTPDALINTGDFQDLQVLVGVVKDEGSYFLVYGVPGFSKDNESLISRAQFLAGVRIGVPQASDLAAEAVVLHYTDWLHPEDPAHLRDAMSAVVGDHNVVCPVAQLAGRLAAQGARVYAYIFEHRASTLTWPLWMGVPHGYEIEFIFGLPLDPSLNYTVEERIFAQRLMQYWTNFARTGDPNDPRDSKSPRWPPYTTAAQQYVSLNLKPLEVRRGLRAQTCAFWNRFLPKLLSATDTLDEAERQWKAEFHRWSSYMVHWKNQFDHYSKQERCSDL

Another experiment addresses Butyrylcholinesterase (Rattus norvegicus, UniProt Q9JKC1).

The IC50 is the point on the concentration scale where inhibition reaches its midpoint. A lower IC50 goes with inhibition by little substance.

Butyrylcholinesterase, sequence (Q9JKC1 whole entry): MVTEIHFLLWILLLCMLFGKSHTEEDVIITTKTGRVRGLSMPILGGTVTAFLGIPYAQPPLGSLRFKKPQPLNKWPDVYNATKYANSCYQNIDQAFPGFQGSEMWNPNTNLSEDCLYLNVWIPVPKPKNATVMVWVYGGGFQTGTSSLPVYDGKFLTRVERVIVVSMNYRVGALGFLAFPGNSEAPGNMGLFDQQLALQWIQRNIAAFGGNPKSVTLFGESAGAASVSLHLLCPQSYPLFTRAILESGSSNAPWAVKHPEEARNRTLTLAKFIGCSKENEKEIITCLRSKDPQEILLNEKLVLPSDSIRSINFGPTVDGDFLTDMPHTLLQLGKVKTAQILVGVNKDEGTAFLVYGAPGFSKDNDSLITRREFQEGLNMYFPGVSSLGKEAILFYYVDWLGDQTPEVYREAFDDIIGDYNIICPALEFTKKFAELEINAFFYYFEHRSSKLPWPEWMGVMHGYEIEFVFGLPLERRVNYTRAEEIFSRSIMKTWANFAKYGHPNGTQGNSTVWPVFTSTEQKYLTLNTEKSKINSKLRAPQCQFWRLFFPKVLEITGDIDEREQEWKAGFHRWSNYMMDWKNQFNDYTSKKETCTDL
Description for Acetylcholinesterase: Inhibitory potency against acetylcholinesterase (AChE) of rat cortex homogenate with ethopropazine as BChE inhibitor
Description for Butyrylcholinesterase: Inhibitory potency against rat serum Butyrylcholinesterase with BW284c51 as AChE inhibitor

On to `Oc1ccc2c(n1)CCCC2NCCCCCCNc1c2c(nc3ccccc13)CCCC2` (racemic), for which the figures for the IC50 on Acetylcholinesterase and at Butyrylcholinesterase were 37.1 nM and 223 nM, respectively.

Regarding `Oc1ccc2c(n1)CCCC2NCCCCNc1c2c(nc3ccccc13)CCCC2` (racemic), the half-inhibitory concentration (IC50) was 42.6 nM against Acetylcholinesterase and 228 nM against Butyrylcholinesterase.

Take `Oc1ccc2c(n1)CCCC2NCCCCCCCNc1c2c(nc3ccccc13)CCCC2` (racemic): the IC50 against Acetylcholinesterase was 53.1 nM; on Butyrylcholinesterase, 233 nM.

Take `Oc1ccc2c(n1)CCCC2NCCCCCNc1c2c(nc3ccccc13)CCCC2` (racemic): the values for the IC50 against Acetylcholinesterase and at Butyrylcholinesterase were 122 nM and 220 nM, respectively.

On to `Oc1ccc2c(n1)CCCC2NCCCCCCCCCNc1c2c(nc3ccccc13)CCCC2` (racemic), for which the values for the IC50 against Acetylcholinesterase and against Butyrylcholinesterase were 36.3 nM and 150 nM, respectively.

As to `O=c1ccc2c([nH]1)CCCC2NCCCCCCCCCCNc1c2c(nc3ccccc13)CCCC2` (racemic), the IC50 at Butyrylcholinesterase was 81.5 nM.

Regarding `O=c1ccc2c([nH]1)CCCC2NCCCCCCCCCCCCNc1c2c(nc3ccccc13)CCCC2` (racemic), the values for the concentration for half-maximal inhibition (IC50) on Acetylcholinesterase and against Butyrylcholinesterase were 112 nM and 434 nM, respectively.

For the compound `O=c1ccc2c([nH]1)CCCC2NCCCCCCCCNc1c2c(nc3ccccc13)CCCC2` (racemic), the values for the IC50 against Acetylcholinesterase and against Butyrylcholinesterase were 26.2 nM and 166 nM, respectively.

The values above are taken from ChEMBL document CHEMBL1131836, “Potent, easily synthesized huperzine A-tacrine hybrid acetylcholinesterase inhibitors” (Bioorg Med Chem Lett, 1999).
